Reference: EPA's ToxRefDB 2

Assays:
rat [1] = details: Carcinogenicity, fischer, Oral, Feed, dose end: 59 week, group: systemic
mouse [2] = details: Carcinogenicity; b6c3f1; Oral; Feed; dose end: 78 week; group: systemic; systemic / in life observation / body weight / body weight + systemic / pathology microscopic / liver / cytoplasmic alteration + systemic / …
rat [3] = details: Sub-acute repeat dose toxicity; fischer; Oral; Feed; dose end: 4 week; group: systemic; systemic / in life observation / body weight / body weight gain
rat [4] = details: Combined chronic toxicity/carcinogenicity, fischer, Oral, Feed, dose end: 2 year, group: systemic
rat [5] = details: Multigenerational reproductive toxicity study, sprague dawley, Oral, Gavage/Intubation, dose end: 2 generation
mouse [6] = details: Subchronic oral toxicity in rodents, b6c3f1, Feed, dose end: 13 week, group: systemic
rat [7] = details: Subchronic oral toxicity in rodents, fischer, Feed, dose end: 13 week
rat [8] = details: Multigenerational reproductive toxicity study, other, Oral, Gavage/Intubation, dose end: 2 generation
mouse [9] = details: Carcinogenicity, b6c3f1, Oral, Feed, dose end: 2 year, group: systemic
mouse [10] = details: Chronic toxicity, [Not Reported], Oral, Feed, dose end: 104 week, group: systemic
rat [11] = details: Developmental neurotoxicity study, sprague dawley, Oral, Gavage/Intubation, dose end: 80 PND, group: cannot be grouped
rat [12] = details: Chronic toxicity; fischer; Oral; Feed; dose end: 130 week; group: systemic; systemic / pathology microscopic / liver / hypertrophy + systemic / pathology microscopic / liver / necrosis
rat [13] = details: Prenatal developmental toxicity study, sprague dawley, Inhalation, Whole-Body, dose end: 15 GD, group: maternal
rat [14] = details: Prenatal developmental toxicity study, sprague dawley, Inhalation, Whole-Body, dose end: 15 GD, group: maternal; remark: listed apart in the source
rat [15] = details: Acute inhalation toxicity, fischer, Whole-Body, dose end: 2 week, group: systemic
rat [16] = details: Subchronic inhalation toxicity, fischer, Whole-Body, dose end: 14 week, group: systemic
rat [17] = details: Peri- and post-natal toxicity study (Segment III), sprague dawley, Oral, Gavage/Intubation, dose end: 54 PND
rat [18] = details: Developmental neurotoxicity study; sprague dawley; Oral; Feed; dose end: 48 PND; group: cannot be grouped; developmental / developmental landmark / eye opening / eye opening + reproductive / offspring survival early / litter size / litter size + …
rat [19] = details: Chronic toxicity, fischer, Oral, Feed, dose end: 104 week, group: systemic
mouse [20] = details: Carcinogenicity; other; Oral; Water; dose end: 36 week; group: systemic; systemic / pathology microscopic / liver / adenoma + systemic / organ weight / liver / absolute + systemic / organ weight / liver / relative…
rat [21] = details: Developmental neurotoxicity study; sprague dawley; Oral; Gavage/Intubation; dose end: 125 PND; group: cannot be grouped; systemic / in life observation / body weight / offspring (pup) weight
mouse [22] = details: Carcinogenicity; b6c3f1; Oral; Feed; dose end: 78 week; group: systemic; systemic / in life observation / body weight / body weight
[23] = systemic / in life observation / body weight / body weight
[24] = systemic / pathology microscopic / kidney / hyaline droplet + systemic / pathology microscopic / kidney / pigmentation
[25] = group: offspring, systemic / in life observation / body weight / offspring (pup) weight + systemic / organ weight / brain / absolute + developmental / …
[26] = group: parental, systemic / in life observation / body weight / body weight + systemic / in life observation / clinical signs / drooping eyelids (ptosis) + …
[27] = group: parental, systemic / in life observation / clinical signs / salivation + systemic / organ weight / kidney / relative to body weight + systemic / organ…
[28] = group: reproductive, reproductive / reproductive performance / gestational length / gestational length + reproductive / reproductive performance / implantations…
[29] = group: reproductive, reproductive / reproductive performance / implantations / implantations
[30] = systemic / in life observation / body weight / body weight gain
[31] = systemic / organ weight / liver / relative to body weight
[32] = group: maternal, reproductive / reproductive performance / estrous cycle / abnormal
[33] = group: systemic, systemic / hematology / erythrocyte (rbc) count differential / erythrocyte (rbc) + systemic / hematology / hematocrit (hct) / hematocrit (…
[34] = group: systemic, systemic / pathology microscopic / kidney / nephropathy + systemic / pathology microscopic / spleen / congestion + systemic / pathology …
[35] = group: offspring, developmental / offspring survival late / viability index / viability index + developmental / developmental landmark / anogenital distance (…
[36] = group: parental, systemic / clinical chemistry / thyroxine (t4) / thyroxine (t4), total + systemic / organ weight / kidney / absolute + systemic / organ …
[37] = group: parental, systemic / organ weight / liver / absolute + systemic / organ weight / liver / relative to body weight + systemic / organ weight / kidney / …
[38] = systemic / pathology microscopic / lung / bronchiolization
[39] = systemic / in life observation / food consumption / food consumption + systemic / organ weight / liver / absolute + systemic / organ weight…
[40] = systemic / in life observation / body weight / body weight + reproductive / reproductive performance / mating / mating
[41] = systemic / in life observation / body weight / body weight + reproductive / reproductive performance / mating / mating + systemic / clinical…
[42] = systemic / in life observation / body weight / body weight + systemic / in life observation / body weight / body weight gain + systemic / in…
[43] = systemic / in life observation / body weight / body weight + systemic / in life observation / clinical signs / body temperature + systemic…
[44] = systemic / pathology microscopic / nose / hyperplasia + systemic / pathology microscopic / nose / hypertrophy + systemic / pathology …
[45] = group: developmental, developmental / developmental landmark / vaginal opening / vaginal opening + developmental / developmental landmark / preputial separation…
[46] = group: parental, systemic / in life observation / clinical signs / ataxia + systemic / in life observation / clinical signs / prostration + systemic / organ …
[47] = group: parental, systemic / organ weight / adrenal gland / absolute + systemic / organ weight / liver / absolute
[48] = systemic / organ weight / liver / relative to body weight + systemic / pathology gross / liver / discolored + systemic / pathology gross / …

CN(C)c1ccc(Cc2ccc(N(C)C)cc2)cc1 [4,4'-Methylenebis(N,N-dimethylaniline)]
LEL (rat [1]; [23]): 18.8 mg/kg/day
LOAEL (rat [1]; [23]): 37.5 mg/kg/day
NEL (rat [1]; [23]): < 18.8 mg/kg/day
NOAEL (rat [1]; systemic / in life observation / body weight / body weight + systemic / pathology microscopic / thyroid gland / adenoma + systemic / …): 18.8 mg/kg/day
LEL (mouse [2]): 188 mg/kg/day
LOAEL (mouse [2]): 188 mg/kg/day
NEL (mouse [2]): < 188 mg/kg/day
NOAEL (mouse [2]): < 188 mg/kg/day
LEL (rat [3]): 7.25 mg/kg/day
LOAEL (rat [3]): 34 mg/kg/day
NEL (rat [3]): < 7.25 mg/kg/day
NOAEL (rat [3]): 15.8 mg/kg/day

Cc1ccc([N+](=O)[O-])cc1 [4-Nitrotoluene]
LEL (rat [4]; [24]): 55 mg/kg/day
NEL (rat [4]; [24]): < 55 mg/kg/day
LOAEL (rat [4]; systemic / pathology microscopic / spleen / hematopoietic cell proliferation + systemic / pathology microscopic / spleen / pigmentation): 110 mg/kg/day
NOAEL (rat [4]; systemic / pathology microscopic / spleen / hematopoietic cell proliferation + systemic / pathology microscopic / spleen / pigmentation + …): 55 mg/kg/day
NEL (rat [5]; group: offspring, systemic / in life observation / body weight / offspring (pup) weight + developmental / offspring survival late / viability index / …): 40 mg/kg/day
LEL (rat [5]; group: offspring, systemic / in life observation / body weight / offspring (pup) weight + systemic / organ weight / brain / absolute): 80 mg/kg/day
LOAEL (rat [5]; [25]): > 160 mg/kg/day
NOAEL (rat [5]; [25]): ≥ 160 mg/kg/day
LOAEL (rat [5]; [26]): > 160 mg/kg/day
NOAEL (rat [5]; [26]): ≥ 160 mg/kg/day
LEL (rat [5]; [27]): 40 mg/kg/day
NEL (rat [5]; [27]): < 40 mg/kg/day
LOAEL (rat [5]; [28]): > 160 mg/kg/day
NOAEL (rat [5]; [28]): ≥ 160 mg/kg/day
LEL (rat [5]; [29]): 40 mg/kg/day
NEL (rat [5]; [29]): < 40 mg/kg/day
LOAEL (mouse [6]; [30]): 813 mg/kg/day
NOAEL (mouse [6]; systemic / in life observation / body weight / body weight gain + systemic / in life observation / food consumption / food consumption + …): 439 mg/kg/day
LEL (mouse [6]; [31]): 131 mg/kg/day
NEL (mouse [6]; [31]): < 131 mg/kg/day
LEL (rat [7]; [32]): 680 mg/kg/day
LOAEL (rat [7]; [32]): > 680 mg/kg/day
NEL (rat [7]; [32]): 335 mg/kg/day
NOAEL (rat [7]; [32]): ≥ 680 mg/kg/day
LOAEL (rat [7]; [33]): 335 mg/kg/day
NOAEL (rat [7]; [33]): 164 mg/kg/day
LEL (rat [7]; [34]): 42 mg/kg/day
NEL (rat [7]; [34]): < 42 mg/kg/day
LOAEL (rat [8]; [35]): 160 mg/kg/day
NEL (rat [8]; [35]): 40 mg/kg/day
NOAEL (rat [8]; group: offspring, developmental / offspring survival late / viability index / viability index + systemic / organ weight / brain / absolute): 80 mg/kg/day
LEL (rat [8]; group: offspring, systemic / organ weight / brain / absolute): 80 mg/kg/day
LOAEL (rat [8]; [36]): > 160 mg/kg/day
NOAEL (rat [8]; [36]): ≥ 160 mg/kg/day
LEL (rat [8]; [37]): 40 mg/kg/day
NEL (rat [8]; [37]): < 40 mg/kg/day
LOAEL (mouse [9]; [23]): 345 mg/kg/day
NOAEL (mouse [9]; systemic / in life observation / body weight / body weight + systemic / pathology microscopic / lung / adenoma/carcinoma combined + systemic…): 170 mg/kg/day
LEL (mouse [9]; [38]): 155 mg/kg/day
NEL (mouse [9]; [38]): < 155 mg/kg/day

ClC1=C(Cl)C2(Cl)C3C(Cl)C(Cl)CC3C1(Cl)C2(Cl)Cl (stereo not drawn) [Chlordane, technical grade]
LEL (mouse [10]; [39]): 0.15 mg/kg/day
NEL (mouse [10]; [39]): < 0.15 mg/kg/day
NOAEL (mouse [10]; systemic / pathology microscopic / liver / degeneration + systemic / in life observation / food consumption / food consumption + systemic / …): 0.15 mg/kg/day
LOAEL (mouse [10]; systemic / pathology microscopic / liver / degeneration + systemic / pathology microscopic / liver / necrosis): 0.75 mg/kg/day
LEL (rat [11]; [40]): 0.1 mg/kg/day
NEL (rat [11]; [40]): < 0.1 mg/kg/day
LOAEL (rat [11]; [41]): > 5 mg/kg/day
NOAEL (rat [11]; [41]): ≥ 5 mg/kg/day
LEL (rat [12]): 0.045 mg/kg/day
LOAEL (rat [12]): 0.045 mg/kg/day
NEL (rat [12]): < 0.045 mg/kg/day
NOAEL (rat [12]): < 0.045 mg/kg/day

CCN(CC)CCO [N,N-Diethylethanolamine]
LOAEL (rat [13]; [42]): > 200 ppm
NEL (rat [13]; [42]): 10 ppm
NOAEL (rat [13]; [42]): ≥ 200 ppm
LEL (rat [13]; [30]): 50 ppm
LOAEL (rat [14]; [42]): > 100 ppm
NEL (rat [14]; [42]): 33 ppm
NOAEL (rat [14]; [42]): ≥ 100 ppm
LEL (rat [14]; systemic / in life observation / body weight / body weight gain + systemic / in life observation / food consumption / food consumption): 66 ppm
LOAEL (rat [15]; [43]): > 300 ppm
NEL (rat [15]; [43]): 10 ppm
NOAEL (rat [15]; [43]): ≥ 300 ppm
LEL (rat [15]; systemic / pathology microscopic / nose / infiltration cellular + systemic / pathology microscopic / nose / metaplasia): 55 ppm
NEL (rat [16]; [44]): 10 ppm
NOAEL (rat [16]; [44]): 10 ppm
LOAEL (rat [16]; systemic / pathology microscopic / nose / hyperplasia + systemic / pathology microscopic / nose / infiltration cellular): 25 ppm
LEL (rat [16]; systemic / pathology microscopic / nose / hyperplasia + systemic / pathology microscopic / nose / infiltration cellular + systemic / …): 25 ppm

CCC1(c2ccccc2)C(=O)NC(=O)NC1=O [Phenobarbital]
NEL (rat [17]; group: developmental, developmental / developmental landmark / vaginal opening / vaginal opening): 50 mg/kg/day
LEL (rat [17]; [45]): 100 mg/kg/day
LOAEL (rat [17]; [45]): > 100 mg/kg/day
NOAEL (rat [17]; [45]): ≥ 100 mg/kg/day
LOAEL (rat [17]; [46]): > 100 mg/kg/day
NOAEL (rat [17]; [46]): ≥ 100 mg/kg/day
LEL (rat [17]; [47]): 25 mg/kg/day
NEL (rat [17]; [47]): < 25 mg/kg/day
LEL (rat [18]): 37.5 mg/kg/day
LOAEL (rat [18]): > 37.5 mg/kg/day
NEL (rat [18]): < 37.5 mg/kg/day
NOAEL (rat [18]): ≥ 37.5 mg/kg/day
LOAEL (rat [19]; [48]): > 19 mg/kg/day
NEL (rat [19]; [48]): 1.1 mg/kg/day
NOAEL (rat [19]; [48]): ≥ 19 mg/kg/day
LEL (rat [19]; systemic / organ weight / liver / relative to body weight + systemic / pathology gross / liver / mass + systemic / pathology microscopic / …): 4.6 mg/kg/day
LEL (mouse [20]): 75 mg/kg/day
LOAEL (mouse [20]): > 75 mg/kg/day
NEL (mouse [20]): < 75 mg/kg/day
NOAEL (mouse [20]): ≥ 75 mg/kg/day
LEL (rat [21]): 40 mg/kg/day
LOAEL (rat [21]): > 80 mg/kg/day
NEL (rat [21]): < 40 mg/kg/day
NOAEL (rat [21]): ≥ 80 mg/kg/day

N[C@@H](Cc1c[nH]c2ccccc12)C(=O)O [l-Tryptophan]
LEL (mouse [22]): 3750 mg/kg/day
LOAEL (mouse [22]): 3750 mg/kg/day
NEL (mouse [22]): < 3750 mg/kg/day
NOAEL (mouse [22]): < 3750 mg/kg/day
